Results reported in patent US20250249001A1, “METHODS OF TREATING SUBSTANCE USE DISORDER WITH 4-(3-CYANOPHENYL)-6-PYRIDINYLPYRIMIDINE MGLU5 NEGATIVE ALLOSTERIC MODULATORS” (Tempero Bio, Inc., priority 2022, published 2025).
Read-outs that look alike come from different tables or passages of the source.

What was measured:
[1] = test system: oxycodone self-administration in rats; test: Intravenous oxycodone self-administration, fixed ratio FR3; type: in vivo, Sprague-Dawley rats; conditions: for oxycodone self-administration, Mean Diff., Vehicle vs. treatment: FR3
Procedure: Animals. Adult male Sprague-Dawley rats (300-325 g at arrival) from Envigo (Indiana, USA) were used. Upon arrival, rats were single housed in standard cages with filter tops, and they were acclimated for at least 7 days before any treatment. All rats were examined and handled prior to initiation of the study. During the study, 12 h/12 h light/dark cycles were maintained. The room temperature was 21-23° C. with a relative humidity maintained at 30-70%. Water was provided ad libitum for the duration of the study.
Test Article(s) • Oxycodone (0.05 mg/kg/infusion; Sigma-Aldrich, USA) was dissolved in saline and infused at a rate of 0.1 ml/infusion. • Compound 1 (0.3, 1, and 3 mg/kg) was formulated in 10% Solutol HS15+90% (10% aqueous hydroxypropyl)-β-cyclodextrin and injected IP 30 minutes prior to test at a dose volume of 2 ml/kg. In the reinstatement study only 3 mg/kg was used. • MTEP (3-((2-Methyl-4-thiazolyl)ethynyl)pyridine; 3 mg/kg), was dissolved in saline and injected IP 30 minutes prior to testing at a dose volume of 2 ml/kg.
Apparatus. Intravenous drug self-administration took place in experimental chambers within sound-attenuating cubicles equipped with an exhaust fan (Med Associates, VT). Each chamber contains two response levers situated on one wall of the chamber. A stimulus light was located above each lever and a house light was located at the top of the opposite wall. A pellet receptacle was situated between the two levers for delivery of food pellets (Bio-Serv's Dustless Precision Pellets #F0165, 45 mg). An infusion pump mounted above each chamber delivers drug solutions via Tygon tubing connected to a single channel fluid swivel, which was mounted on a balance arm above the operant chamber. The output of the liquid swivel was attached to the externalized terminus of the intravenous catheter.
Surgery and catheter maintenance: The rats were first implanted with jugular vein catheters (Access Technologies, USA). After the surgery, catheters were flushed daily with 0.2 ml of heparin-Enrofloxacin solution to avoid clogging and to ensure smooth drug infusion. The flushing liquid was made in 50 ml volume units which contained 1500 U Heparin and 320 mg Enrofloxacin (Baytril®). The solution was stored in sterilized vials in a 4° C. refrigerator. After the rats recovered from catheterization surgery, they were food-restricted (about 15 or 20 g/day) and maintained at ˜85% of their free-feeding, age-matched control body weight throughout the study. Starting from the 3rd day of food restriction, rats were trained to press the active lever (one of the two levers) to obtain food. During the study, Methohexital sodium (Brevital®, Henry Schein Animal Health, USA) was used twice for catheter evaluation and thereby for indirect infusion confirmation. Brevital is a short-acting barbiturate that, when infused through the catheter, produces overt signs of sedation within seconds. […] The rats were first implanted with jugular vein catheters (Access Technologies, USA). After the surgery, catheters were flushed daily with 0.2 ml of heparin-Enrofloxacin solution to avoid clogging and to ensure smooth drug infusion. The flushing liquid was made in 50 ml volume units which contained 1500 U Heparin and 320 mg Enrofloxacin (Baytril®). The solution was stored in sterilized vials in a 4° C. refrigerator. After the rats recovered from catheterization surgery, they were food-restricted (about 15 or 20 g/day) and maintained at ˜85% of their free-feeding, age-matched control body weight throughout the study. Starting from the 3rd day of food restriction, rats were trained to press the active lever (one of the two levers) to obtain food. During the study, Methohexital sodium (Brevital®, Henry Schein Animal Health, USA) was used a few times for catheter evaluation and thereby for indirect infusion confirmation. Brevital is a short-acting barbiturate that, when infused through the catheter, produces overt signs of sedation within seconds. […]

[2] = test system: cocaine-induced CPP in male SD rats; type: in vivo, Sprague Dawley rats; conditions: for time difference (drug-paired vs saline-paired) vs Cocaine-Saline group / time spent in the drug-paired compartment vs Cocaine-Saline group: day 10
Procedure: Animals: Male Sprague Dawley rats (Envigo, IN, 275-299 g) were group housed upon arrival (2 per cage). All rats were examined and handled to assure adequate health and suitability. During the study, a 12/12 light/dark cycle was maintained (lights switched on at 7:00 am). The room temperature was maintained between […] and 23° C. with a relative humidity maintained around 50%. Chow (LabDiet #5001) and water were provided ad libitum for the duration of the study. The test was performed during the animal's light cycle phase.
Cocaine (10 mg/kg) was dissolved in saline and injected IP at a dose volume of 1 ml/kg. Cocaine was administered on training days 3, 5, 7 and 9 immediately prior to training.
3-((2-Methyl-4-thiazolyl)ethynyl)pyridine (MTEP, 3 mg/kg), was dissolved in saline and injected IP on day 10 (bias test) at a dose volume of 1 ml/kg 30 minutes prior to testing.
Compound 1 (1, 3 and 10 mg/kg) was formulated in 10% Solutol HS15 and 90% (10% aqueous 2-hydroxypropyl-β-cyclodextrin) and injected IP on day 10 (bias test) at a dose volume of 2 ml/kg. Compound 1 was administered 30 minutes prior to testing.
The chamber used in this study contained two compartments [(60 cm (L)×40 cm (W)×24 cm (H)]. The compartment used for each animal and drug pairing was assigned and counterbalanced in advance and adjusted as necessary in the rebalancing procedure after day 1 (see details below). Within the chamber, visual and physical features were used to create the two distinct compartments. For example, one compartment may have a flat plastic floor with white stripes and the other may have a textured floor and black stripes. The chambers were cleaned with 70% alcohol in between runs.
Testing sessions were recorded on days 1 and 10 to determine time spent (seconds) in each chamber.
Day 1 Pre-conditioning/Habituation: Animals are allowed to explore the entire testing chamber freely for 20 min. Animals that display a strong preference for one compartment (>75% time spent in one compartment) are excluded.
Rebalancing Procedure: Animals are rebalanced following day 1 scoring if the difference between groups for time spent in one compartment is greater than 15%.
Days 2-9 Conditioning: All animals are treated with saline on days 2, 4, 6, and 8 and with cocaine or saline on days 3, 5, 7, and 9 depending on their assigned group. Animals are confined to their assigned compartment (saline- or cocaine-paired compartment) for 20 minutes following dosing.
Day 10 Post-conditioning bias test: Animals are dosed once with either saline, MTEP or Compound 1 (1, 3 and 10 mg/kg) according to their assigned. Following dosing, animals are allowed to explore the testing chamber freely for 20 minutes with the compartment dividing door open. Their activity exploring the chamber is recorded for analysis.
Statistical Analysis: Statistical analysis was conducted using GraphPad Prism 9. Scorers blinded to the treatment groups scored the amount of time each animal spent exploring each chamber on days 1 and 10. For bias test data, a one-way analysis of variance (ANOVA) followed by Dunnett's post hoc test was used. Significance was set at p<0.05 and values exceeding two standard deviations of the mean were considered statistical outliers and were excluded from the analysis. Additionally, if an animal spent >85% or <15% of the time in one compartment even without any obvious signs of sedation or locomotor dysfunction, they were excluded from the analysis.

[3] = 3 mg/kg IP 30 minutes prior to test
[4] = 1 mg/kg IP 30 minutes prior to day 10 bias test
[5] = MTEP 3 mg/kg IP 30 minutes prior to day 10 bias test

Compound | oxycodone self-administration, Mean Diff., Vehicle vs. treatment ([1]; 0.3 mg/kg IP 30 minutes prior to test) | oxycodone self-administration, Mean Diff., Vehicle vs. treatment ([1]; 1 mg/kg IP 30 minutes prior to test) | oxycodone self-administration, Mean Diff., Vehicle vs. treatment [1, 3] | oxycodone self-administration vs vehicle ([1]; all three doses, 0.3, 1 and 3 mg/kg IP) | Percent time in compound-paired compartment, Mean Diff., Cocaine - Saline vs. Cocaine - Compound 1 (1 mg/kg) [2, 4] [%] | Preference Scores, Mean Diff., Cocaine - Saline vs. Cocaine - Compound 1 (1 mg/kg) [2, 4] [s] | time difference (drug-paired vs saline-paired) vs Cocaine-Saline group ([2]; 1 mg/kg IP, p<0.01) | time spent in the drug-paired compartment vs Cocaine-Saline group ([2]; 1 mg/kg IP, p<0.01) | self-administered oxycodone infusion vs vehicle treatment ([1]; 3 mg/kg IP) | time difference (drug-paired vs saline-paired) vs Cocaine-Saline group ([2]; 3 mg/kg IP, p<0.05) | time spent in the drug-paired compartment vs Cocaine-Saline group ([2]; 3 mg/kg IP, p<0.05) | Percent time in compound-paired compartment, Mean Diff., Cocaine - Saline vs. Cocaine - MTEP [2, 5] [%] | Preference Scores, Mean Diff., Cocaine - Saline vs. Cocaine - MTEP [2, 5] [s]
N#Cc1cc(Cl)cc(-c2cc(-c3ccc(F)cn3)ncn2)c1 [Compound 1, 3-chloro-5-[6-(5-fluoropyridin-2-yl)pyrimidin-4-yl]benzonitrile] | 5.438 | 6.283 | 9.483 | significantly attenuated oxycodone self-administration | 19.16 | 459.9 | significantly lower time difference | significantly less time in the drug-paired compartment |  |  |  |  | 
Cc1nc(C#Cc2cccnc2)cs1 [MTEP, 3-((2-Methyl-4-thiazolyl)ethynyl)pyridine] |  |  | 7.188 |  |  |  |  |  | significantly decreased self-administered oxycodone infusion | significantly lower time difference | significantly less time in the drug-paired compartment | 18.73 | 449.6
